Entries after “also recorded” stand apart in the source; their conditions may differ.
Assays:
[1] = system: NFKB; assay: NFKB reporter activity in THP1-Dual monocytes co-cultured with treated A20 cells; format: cell-based, human; settings: for NFKB signaling/activity in THP1 monocytes: A20 cells treated 24 hours, then co-culture with THP1-Dual cells 24 hours, versus DMSO
Method: A20 B-cell leukemia cells were treated with either control (DMSO) or various doses of RSL3, for 24 hours prior to co-culture with THP1-Dual cells for an additional 24 hours. RSL3 was purchased from Selleckchem (Houston, Tex.) and dissolved in DMSO. Subsequently, the THP1 supernatants were assessed for NFKB or IRF reporter activity.
A20 cells were acquired from ATCC and THP1-Dual cells acquired from InvivoGen (San Diego, Calif.). Both cell types were cultured in 96-well plates for the duration of the assay. 50,000 A20 cells were plated 24 hours prior to dosing with RSL3, with a final DMSO concentration of 0.5%. 24 hours post-treatment, THP1-Dual cells (25,000 cells/well) were added to the A20 cells. 24 hours later, 30 μl of supernatant was mixed with either 200 μl QuantiBlue (InvivoGen, San Diego, Calif.) or 50 μl QuantiLuc and absorbance or luminescence was recorded on a Molecular Devices plate reader.
A20 lymphoma cells were treated with various doses (e.g. 0.002, 0.005, 0.014, 0.041, 0.123, 0.370, 1.111, 3.333 and 10 μM) of a GPX4 inhibitor (RSL3, ML162 or ML210) in the presence or absence of 1 μM Ferrostatin-1 for 24 hours. ML162 was purchased from Cayman Chemical Company Inc and resuspended in DMSO. ML210 was purchased from Sigma-Aldrich and resuspended in DMSO. A20 lymphoma cells were also treated with DMSO as a negative control. After treatment with DMSO or a GPX4 inhibitor for 24 hours, the A20 lymphoma cells were co-cultured with THP1-Dual cells for an additional 24 hours. Subsequently, the THP1 supernatant was assessed for NFKB reporter activity. A20 cells were acquired from ATCC and THP1-Dual cells were acquired from InvivoGen (San Diego, Calif.). Both cell types were cultured in 96-well plates for the duration of the assay.

[2] = system: NFKB; assay: NFKB reporter activity in THP1-Dual monocytes co-cultured with treated Caki-1 cells; format: cell-based, human; settings: for NFKB signaling/activity in THP1 monocytes: Caki-1 cells treated 24 hours, then co-culture with THP1-Dual cells 24 hours, versus DMSO
Method: Caki-1 renal cell carcinoma cells were treated with either control (DMSO) or various doses of Erastin, for 24 hours prior to co-culture with THP1-Dual cells for an additional 24 hours. Erastin was purchased from Selleckchem (Houston, Tex.) and dissolved in DMSO. Subsequently, the THP1 supernatants were assessed for NFKB or IRF reporter activity.
Caki-1 cells were acquired from ATCC and THP1-Dual cells acquired from InvivoGen (San Diego, Calif.). Both cell types were cultured in 96-well plates for the duration of the assay. 7,500 Caki-1 cells were plated 24 hours prior to dosing with Erastin, with a final DMSO concentration of 0.5%. 24 hours post-treatment, THP1-Dual cells (25,000 cells/well) were added to the Caki-1 cells. 24 hours later, 30 μl of supernatant was mixed with either 200 μl QuantiBlue (InvivoGen) or 50 μl QuantiLuc and absorbance or luminescence was recorded on a Molecular Devices plate reader.
Caki-1 renal cell carcinoma cells were treated with either control (DMSO) or various doses of RSL3, for 24 hours prior to co-culture with THP1-Dual cells for an additional 24 hours. RSL3 was purchased from Selleckchem and dissolved in DMSO. Subsequently, the THP1 supernatants were assessed for NFKB or IRF reporter activity.
Caki-1 cells were acquired from ATCC and THP1-Dual cells acquired from InvivoGen (San Diego, Calif.). Both cell types were cultured in 96-well plates for the duration of the assay. 7,500 Caki-1 cells were plated 24 hours prior to dosing with RSL3, with a final DMSO concentration of 0.5%. 24 hours post-treatment, THP1-Dual cells (25,000 cells/well) were added to the Caki-1 cells. 24 hours later, 30 μl of supernatant was mixed with either 200 μl QuantiBlue (InvivoGen, San Diego, Calif.) or 50 μl QuantiLuc and absorbance or luminescence was recorded on a Molecular Devices plate reader.
Caki-1 renal carcinoma cells were treated with either control (DMSO) or various doses (e.g. 0.002, 0.005, 0.014, 0.041, 0.123, 0.370, 1.111, 3.333 and 10 μM) of a GPX4 inhibitor (RSL3 or ML162) in the presence or absence of 1 μM Ferrostatin for 24 hours prior to co-culture with THP1-Dual cells for an additional 24 hours. Subsequently, the THP1 supernatant was assessed for NFKB reporter activity. Caki-1 cells were acquired from ATCC and THP1-Dual cells acquired from InvivoGen (San Diego, Calif.). Both cell types were cultured in 96-well plates for the duration of the assay.

[3] = system: A20 lymphoma cells; assay: Viability of A20 B-cell leukemia / lymphoma cells after treatment; format: cell-based; settings: for viability of A20 cells: various doses, 24 hours treatment
[4] = system: Caki-1 renal cell carcinoma cells; assay: Viability of Caki-1 renal cell carcinoma cells after treatment; format: cell-based; settings: for viability of Caki-1 cells: various doses, 24 hours treatment
Method: Caki-1 renal carcinoma cells were treated with either control (DMSO) or various doses (e.g. 0.002, 0.005, 0.014, 0.041, 0.123, 0.370, 1.111, 3.333 and 10 μM) of a GPX4 inhibitor (RSL3 or ML162) in the presence or absence of 1 μM Ferrostatin for 24 hours prior to co-culture with THP1-Dual cells for an additional 24 hours. […] Caki-1 cells were acquired from ATCC and THP1-Dual cells acquired from InvivoGen (San Diego, Calif.). Both cell types were cultured in 96-well plates for the duration of the assay.

[5] = system: NFKB; assay: NFKB reporter activity in THP1-Dual monocytes co-cultured with treated HT1080 cells; format: cell-based, human; settings: HT1080 cells treated 24 hours, then co-culture with THP1-Dual cells 24 hours; versus DMSO
Method: HT1080 fibrosarcoma cells were treated with either control (DMSO) or various doses of Erastin, piperazine erastin (PE), or imidazole ketoerastin (IKE) for 24 hours prior to co-culture with THP1-Dual cells for an additional 24 hours. Erastin was purchased from Selleckchem (Houston, Tex.) and dissolved in DMSO. Subsequently, the THP1 supernatants were assessed for nuclear factor kappa-light-chain-enhancer of activated B cells (NFKB) or interferon regulatory factor (IRF) reporter activity.
HT1080 cells were acquired from ATCC and THP1-Dual cells were acquired from InvivoGen (San Diego, Calif.). THP1-Dual cells are human monocyte cells that induce reporter proteins upon activation of either NFKB or IRF pathways. Both cell types were cultured in 96-well plates for the duration of the assay. HT1080 cells were cultured in DMEM with 10% FBS, and THP1-Dual cells were cultured in RPMI with 10% FBS. 7,500 HT1080 cells were plated 24 hours prior to dosing with Erastin, PE, or IKE, with a final DMSO concentration of 0.5%. 24 hours post-treatment, THP1-Dual cells (25,000 cells/well) were added to the HT1080 cells. 24 hours later, 30 μl of supernatant was mixed with either 200 μl QuantiBlue (InvivoGen, San Diego, Calif.) (for NFKB reporter activity) or 50 μl QuantiLuc (for IRF reporter activity) and absorbance or luminescence was recorded on a Molecular Devices plate reader.
HT1080 fibrosarcoma cells were treated with various doses of Erastin (e.g. […], 0.16, 0.31, 0.63, 1.25, 2.5, 5, 10 or 20 μM) alone or in combination with a ferroptosis inhibitor (1 μM Ferrostatin-1, 1 μM Liproxstatin-1, 100 μM Trolox, 25 μM β-Mercaptoethanol or 100 μM Deferoxamine) for 24 hours prior to co-culture with THP1-Dual cells for an additional 24 hours. Ferrostatin-1 and Liproxstatin-1 were purchased from Selleckchem (Houston, Tex.) and dissolved in DMSO. Trolox was purchased from Cayman Chemical Company Inc and resuspended in DMSO. […] Subsequently, the THP1 supernatant was assessed for NFKB activity. […]

[6] = system: HT1080 fibrosarcoma cells; assay: Viability of HT1080 fibrosarcoma cells after treatment; format: cell-based; settings: various doses, 24 hours treatment
[7] = system: NFKB; assay: NFKB reporter activity in THP1-Dual monocytes co-cultured with treated PANC1 cells; format: cell-based, human; settings: PANC1 cells treated 24 hours, then co-culture with THP1-Dual cells 24 hours; versus DMSO
Method: PANC1 pancreatic cancer cells were treated with either control (DMSO) or various doses of Erastin, for 24 hours prior to co-culture with THP1-Dual cells for an additional 24 hours. Erastin was purchased from Selleckchem (Houston, Tex.) and dissolved in DMSO. Subsequently, the THP1 supernatants were assessed for NFKB or IRF reporter activity.
PANC1 cells were acquired from ATCC and THP1-Dual cells were acquired from InvivoGen (San Diego, Calif.). Both cell types were cultured in 96-well plates for the duration of the assay. 7,500 PANC-1 cells were plated 24 hours prior to dosing with Erastin, with a final DMSO concentration of 0.5%. 24 hours post-treatment, THP1-Dual cells (25,000 cells/well) were added to the PANC-1 cells. 24 hours later, 30 μl of supernatant was mixed with either 200 μl QuantiBlue (InvivoGen, San Diego, Calif.) or 50 μl QuantiLuc and absorbance or luminescence was recorded on a Molecular Devices plate reader.

[8] = system: cells overexpressing oncogenic HRAS; settings: engineered human fibroblast cell lines; Dolma et al., 2003; cited from earlier work
[9] = system: PANC1 pancreatic cancer cells; assay: Viability of PANC1 pancreatic cancer cells after treatment; format: cell-based; settings: various doses, 24 hours treatment

With CCOC(=O)c1ccc(NC2CCCCC2)c(N)c1 [Ferrostatin-1] the “effect on GPX4 inhibitor-increased NFKB activity in THP1 cells” value ([1]; A20 cells, 1 μM Ferrostatin-1 together with RSL3, ML162 or ML210, then THP1-Dual co-culture 24 hours) was “attenuated”, the “effect on GPX4 inhibitor-increased NFKB activity in THP1 cells” value ([2]; Caki-1 cells, 1 μM Ferrostatin-1 together with RSL3 or ML162, then THP1-Dual co-culture 24 hours) was “attenuated” and the “effect on GPX4 inhibitor-decreased viability of A20 lymphoma cells” value ([3]; 1 μM Ferrostatin-1 together with RSL3, ML162 or ML210, 24 hours) was “attenuated”. The “effect on GPX4 inhibitor-decreased viability of Caki-1 renal carcinoma cells” value ([4]; 1 μM Ferrostatin-1 together with RSL3 or ML162, 24 hours) was “attenuated”.

For COc1ccc(N(C(=O)CCl)C(C(=O)NCCc2ccccc2)c2cccs2)cc1Cl (stereo not drawn) [ML162], the “NFKB signaling/activity in THP1 monocytes” value (“NFKB signaling/activity” below) [1] was “increased NFKB activity in THP1 cells in a dose dependent manner”, the “NFKB signaling/activity” value [2] was “increased NFKB activity in THP1 cells in a dose dependent manner” and the “viability of A20 cells” value [3] was “decreased viability of the cells in a dose dependent manner”. For the same compound, the “viability of Caki-1 cells” value [4] was “decreased viability of the cells in a dose dependent manner”.

In the case of CC(C)Oc1ccc(C(=O)Cn2ccnc2)cc1-n1c(CN2CCN(C(=O)COc3ccc(Cl)cc3)CC2)nc2ccccc2c1=O [IKE, imidazole ketoerastin], the “NFKB signaling/activity” value [5] is reported as “elicited NFKB signaling” and the “viability of HT1080 cells” value [6] is reported as “negatively affected the viability”.

With Cc1onc(C(=O)N2CCN(C(c3ccc(Cl)cc3)c3ccc(Cl)cc3)CC2)c1[N+](=O)[O-] [ML210] the “NFKB signaling/activity” value [1] was “increased NFKB activity in THP1 cells in a dose dependent manner” and the “viability of A20 cells” value [3] was “decreased viability of the cells in a dose dependent manner”.

With CC(C)Oc1ccc(CN2CCNCC2)cc1-n1c(CN2CCN(C(=O)COc3ccc(Cl)cc3)CC2)nc2ccccc2c1=O [PE, piperazine erastin] the “NFKB signaling/activity” value [5] was “elicited NFKB signaling” and the “viability of HT1080 cells” value [6] was “negatively affected the viability”.

In the case of CCOc1ccccc1-n1c(C(C)N2CCN(C(=O)COc3ccc(Cl)cc3)CC2)nc2ccccc2c1=O (stereo not drawn) [Erastin, erastin], the “NFKB signaling/activity” value [5] is given as “elicited NFKB signaling; also recorded: increased NFKB activity in THP1 cells in a dose dependent manner”, the “NFKB signaling in THP1 monocytes” value [7] is given as “elicited NFKB signaling” and the “lethality in cells overexpressing oncogenic HRAS” value [8] is given as “induce preferential lethality”. The “NFKB signaling/activity” value [2] was “elicited NFKB signaling”, the “viability of HT1080 cells” value [6] was “negatively affected the viability; also recorded: decreased viability of the cells in a dose dependent manner” and the “viability of PANC1 cells” value [9] was “negatively affected the viability”. The “viability of Caki-1 cells” value [4] was “negatively affected the viability”.

— patent publication US20210251994A1, “INCREASING IMMUNE ACTIVITY THROUGH MODULATION OF POSTCELLULAR SIGNALING FACTORS” (FLAGSHIP PIONEERING INNOVATIONS V, INC., priority 2018, published 2021)
